Experiments:
A549 cells = test: A549 proliferation (viability) assay, Cell Titer Fluor, 72 hours; type: cell-based; conditions: Homo sapiens
Outline: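 Compound was added to A549 cells (1000/well, pre-grown 24 h in RPMI 1640 plus 10% dialyzed FBS) at 0.5% DMSO and left 72 h under 37 °C, 5% CO2, ambient O2. Live-cell fluorescence (Cell Titer Fluor) gave the EC50.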

[1] = molecular target: T1, GLS1 (purified recombinant human GAC) (Homo sapiens, UniProt O94925); test: GLS1 enzymatic activity assay (dual-coupled, Amplex UltraRed/resorufin); type: biochemical
T1 sequence (O94925 55-598 isoform O94925-3 limits assumed): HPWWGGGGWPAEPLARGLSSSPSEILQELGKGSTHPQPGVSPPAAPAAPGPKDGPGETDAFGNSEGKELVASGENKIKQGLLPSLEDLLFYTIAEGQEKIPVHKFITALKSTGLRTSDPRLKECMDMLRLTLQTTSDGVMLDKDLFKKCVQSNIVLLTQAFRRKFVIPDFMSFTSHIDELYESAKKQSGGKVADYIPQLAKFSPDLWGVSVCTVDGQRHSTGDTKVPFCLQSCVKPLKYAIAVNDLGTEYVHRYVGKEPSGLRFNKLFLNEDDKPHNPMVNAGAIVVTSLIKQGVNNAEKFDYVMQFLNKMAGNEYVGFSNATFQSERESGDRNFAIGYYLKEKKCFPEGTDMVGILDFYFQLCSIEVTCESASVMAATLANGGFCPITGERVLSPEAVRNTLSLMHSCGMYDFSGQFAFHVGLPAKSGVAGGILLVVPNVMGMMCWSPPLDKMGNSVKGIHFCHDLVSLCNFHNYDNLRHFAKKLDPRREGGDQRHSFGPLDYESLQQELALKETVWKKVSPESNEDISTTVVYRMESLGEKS
Outline: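 In this coupled fluorometric format, phosphate-activated GAC (2 nM, 50 mM phosphate) is pre-exposed to compound for 10 min before 1 mM glutamine addition. Product is tracked as resorufin (530/590 nm) over time or at 20 min, and potency is derived by logistic fitting.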

| Structure (SMILES) | EC50 (A549 cells) [µM] | IC50 [1] [µM] |
| --- | --- | --- |
| O=C(CN1CCCCC1)Nc1ccn(CCC(F)Cn2cc(C(=O)NCc3cncc(C(F)(F)F)c3)nn2)c(=O)c1F (stereo not shown) [Example 351, 1-(2-fluoro-4-{3-fluoro-2-oxo-4-[2-(piperidin-1-yl)acetamido]-1,2-dihydropyridin-1-yl}butyl)-N-{[5-(trifluoromethyl)pyridin-3-yl]methyl}-1H-1,2,3-triazole-4-carboxamide] | < 0.1 | < 0.1 |
| O=C(CC1CCCCC1)Nc1ccn(CCC(F)Cn2cc(C(=O)NCc3ccc(C(F)(F)F)cn3)nn2)c(=O)c1F (stereo not shown) [Example 261, 1-{4-[4-(2-cyclohexylacetamido)-3-fluoro-2-oxo-1,2-dihydropyridin-1-yl]-2-fluorobutyl}-N-{[5-(trifluoromethyl)pyridin-2-yl]methyl}-1H-1,2,3-triazole-4-carboxamide] | < 0.1 | < 0.1 |
| O=C(Cc1cscn1)Nc1ccn(CCC(F)Cn2cc(C(=O)NCc3cccc(OC(F)(F)F)c3)nn2)c(=O)c1 (stereo not shown) [Example 247, 1-(2-fluoro-4-{2-oxo-4-[2-(1,3-thiazol-4-yl)acetamido]-1,2-dihydropyridin-1-yl}butyl)-N-{[3-(trifluoromethoxy)phenyl]methyl}-1H-1,2,3-triazole-4-carboxamide] | 0.5 to 5 | < 0.1 |
| O=C(Nc1ccn(CCCCc2nnc(C(=O)NCc3cccc(OC(F)(F)F)c3)s2)c(=O)n1)OCc1ccccc1 [Example 28, Benzyl 2-oxo-1-(4-(5-(3-(trifluoromethoxy)benzylcarbamoyl)-1,3,4-thiadiazol-2-yl)butyl)-1,2-dihydropyrimidin-4-ylcarbamate] | 0.1 to 0.5 | < 0.1 |
| O=C(CC1CCCCC1)Nc1ccn(CCCCc2nnc(C(=O)NCc3ccccn3)s2)c(=O)c1 [Example 447, 5-{4-[4-(2-cyclohexylacetamido)-2-oxo-1,2-dihydropyridin-1-yl]butyl}-N-(pyridin-2-ylmethyl)-1,3,4-thiadiazole-2-carboxamide] | < 0.1 | < 0.1 |
| O=C(CC1CCC(O)CC1)Nc1ccn(CCCCn2cc(C(=O)NCc3cccc(OC(F)(F)F)c3)nn2)c(=O)c1 (stereo not shown) [Example 208, 1-(4-{4-[2-(4-hydroxycyclohexyl)acetamido]-2-oxo-1,2-dihydropyridin-1-yl}butyl)-N-{[3-(trifluoromethoxy)phenyl]methyl}-1H-1,2,3-triazole-4-carboxamide] | 0.5 to 5 | < 0.1 |
| CNC(=O)c1cn(CC(F)CCn2ccc(NC(=O)C(=O)N3CCCCC3)c(F)c2=O)nn1 (stereo not shown) [Example 429, 1-(2-fluoro-4-{3-fluoro-2-oxo-4-[2-oxo-2-(piperidin-1-yl)acetamido]-1,2-dihydropyridin-1-yl}butyl)-N-methyl-1H-1,2,3-triazole-4-carboxamide] | 0.5 to 5 | 0.5 to 5 |
| O=C(NCc1cccc(OC(F)(F)F)c1)c1cn(CC(F)CCn2ccc(NC(=O)[C@@H](O)c3ccccc3)cc2=O)nn1 (stereo partly drawn) [Example 224, 1-(2-fluoro-4-{4-[(2S)-2-hydroxy-2-phenylacetamido]-2-oxo-1,2-dihydropyridin-1-yl}butyl)-N-{[3-(trifluoromethoxy)phenyl]methyl}-1H-1,2,3-triazole-4-carboxamide] | < 0.1 | < 0.1 |
| O=C(Cc1ccccc1)Nc1ccn(CC[C@H](F)Cn2cc(C(=O)NCc3cccc(C(F)(F)F)n3)nn2)c(=O)c1F [Example 126, (S)-1-(2-fluoro-4-(3-fluoro-2-oxo-4-(2-phenylacetamido)pyridin-1(2H)-yl)butyl)-N-((6-(trifluoromethyl)pyridin-2-yl)methyl)-1H-1,2,3-triazole-4-carboxamide] | 0.1 to 0.5 | < 0.1 |
| O=C(CC1CCC(F)(F)CC1)Nc1ccn(CCCCn2cc(C(=O)NCc3cccc(OC(F)(F)F)c3)nn2)c(=O)c1 [Example 166, 1-(4-{4-[2-(4,4-difluorocyclohexyl)acetamido]-2-oxo-1,2-dihydropyridin-1-yl}butyl)-N-{[3-(trifluoromethoxy)phenyl]methyl}-1H-1,2,3-triazole-4-carboxamide] | < 0.1 | < 0.1 |
| O=C(CC1CCCCC1)Nc1ccn(CCCCc2nnc(C(=O)NCc3cc(OC(F)(F)F)ccc3F)s2)c(=O)c1 [Example 460, 5-{4-[4-(2-cyclohexylacetamido)-2-oxo-1,2-dihydropyridin-1-yl]butyl}-N-{[2-fluoro-5-(trifluoromethoxy)phenyl]methyl}-1,3,4-thiadiazole-2-carboxamide] | < 0.1 | < 0.1 |
| O=C(CC1CCCCO1)Nc1ccn(CCCCn2cc(C(=O)NCc3cccc(OC(F)(F)F)c3)nn2)c(=O)c1 (stereo not shown) [Example 206, 1-(4-{4-[2-(oxan-2-yl)acetamido]-2-oxo-1,2-dihydropyridin-1-yl}butyl)-N-{[3-(trifluoromethoxy)phenyl]methyl}-1H-1,2,3-triazole-4-carboxamide] | < 0.1 | < 0.1 |
| O=C(Nc1ccn(CCC(F)Cn2cc(C(=O)NCc3cccc(OC(F)(F)F)c3)nn2)c(=O)n1)NC1CCC1 (stereo not shown) [Example 499, 1-(4-{4-[(cyclobutylcarbamoyl)amino]-2-oxo-1,2-dihydropyrimidin-1-yl}-2-fluorobutyl)-N-{[3-(trifluoromethoxy)phenyl]methyl}-1H-1,2,3-triazole-4-carboxamide] | > 5 | 0.5 to 5 |
| O=C(Cc1cccc(OC(F)(F)F)c1)Nc1ccn(CCCCc2nnc(C(=O)NCc3cc(OC(F)(F)F)ccc3F)s2)c(=O)c1 [Example 459, N-{[2-fluoro-5-(trifluoromethoxy)phenyl]methyl}-5-[4-(2-oxo-4-{2-[3-(trifluoromethoxy)phenyl]acetamido}-1,2-dihydropyridin-1-yl)butyl]-1,3,4-thiadiazole-2-carboxamide] | < 0.1 | < 0.1 |
| O=C(Nc1ccn(CCC(F)Cn2cc(C(=O)NCc3cccc(OC(F)(F)F)c3)nn2)c(=O)n1)OCc1cccc(OC(F)(F)F)c1 (stereo not shown) [Example 491, 3-(trifluoromethoxy)benzyl(1-(3-fluoro-4-(4-((3-(trifluoromethoxy)benzyl)carbamoyl)-1H-1,2,3-triazol-1-yl)butyl)-2-oxo-1,2-dihydropyrimidin-4-yl)carbamate] | < 0.1 | < 0.1 |
| O=C(CC1CCOC1)Nc1ccn(CCCCn2cc(C(=O)NCc3cccc(OC(F)(F)F)c3)nn2)c(=O)c1 (stereo not shown) [Example 47, 1-(4-{2-oxo-4-[2-(oxolan-3-yl)acetamido]-1,2-dihydropyridin-1-yl}butyl)-N-{[3-(trifluoromethoxy)phenyl]methyl}-1H-1,2,3-triazole-4-carboxamide] | 0.5 to 5 | < 0.1 |
| O=C(Cc1ccccc1)Nc1ccn(CCC(F)Cn2cc(C(=O)NCc3cccc(OC(F)(F)F)c3)nn2)c(=O)c1 (stereo not shown) [Example 134, 1-{2-fluoro-4-[2-oxo-4-(2-phenylacetamido)-1,2-dihydropyridin-1-yl]butyl}-N-{[3-(trifluoromethoxy)phenyl]methyl}-1H-1,2,3-triazole-4-carboxamide] | < 0.1 | < 0.1 |
| CC(C)(C)OC(=O)N1CCN(CC(=O)Nc2ccn(CCC(F)Cn3cc(C(=O)NCc4cccc(OC(F)(F)F)c4)nn3)c(=O)c2)CC1 (stereo not shown) [Example 271, tert-butyl 4-{[(1-{3-fluoro-4-[4-({[3-(trifluoromethoxy)phenyl]methyl}carbamoyl)-1H-1,2,3-triazol-1-yl]butyl}-2-oxo-1,2-dihydropyridin-4-yl)carbamoyl]methyl}piperazine-1-carboxylate] | < 0.1 | < 0.1 |
| O=C(CC1CCCC1)Nc1ccn(CCCCc2nnc(NC(=O)NCc3cccc(C(F)(F)F)c3)s2)c(=O)c1F [Example 133, 2-cyclopentyl-N-(3-fluoro-2-oxo-1-(4-(5-(3-(3-(trifluoromethyl)benzyl)ureido)-1,3,4-thiadiazol-2-yl)butyl)-1,2-dihydropyridin-4-yl)acetamide] | 0.1 to 0.5 | < 0.1 |
| O=C(CC1CCCCC1)Nc1ccn(CCCCn2cc(C(=O)NC(CO)c3ccccc3)nn2)c(=O)c1 (stereo not shown) [Example 192, 1-{4-[4-(2-cyclohexylacetamido)-2-oxo-1,2-dihydropyridin-1-yl]butyl}-N-(2-hydroxy-1-phenylethyl)-1H-1,2,3-triazole-4-carboxamide] | > 5 | 0.1 to 0.5 |

Source: patent US20160002204A1 (Board of Regents, The University of Texas System, priority 2014, published 2016)
